Data from patent US12459951B2, “Compounds that interact with RAS superfamily proteins for treatment of cancers, inflammatory diseases, rasopathies, and fibrotic disease” (SHY Therapeutics, LLC, priority 2022, dated 2025).

How the values were obtained:
[1] = system: Erk1/2 phosphorylation; assay: Erk1/2 Phosphorylation Assay (western blot), Panc-1; type: cell-based, human; details: at 10 μM, * = activation
Procedure, shortened: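 KRas G12D Panc-1 cells were treated 6 h at 37° C with compound at 10 μM or serial dilutions for IC50 (0.3% DMSO). In method 1, cells were serum-starved overnight (0.5% FBS) and then given 1.5 ng/ml EGF for 15 min. In method 2, cells stayed in 10% FBS without stimulation. Lysate phospho-Erk1/2 (Thr202/Tyr204) was read by western blot.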

[2] = system: KRas G12D mutant; assay: Ras GTP Binding Domain Inhibition Assay (Ras Superfamily Assay); details: 20 μM compound; for KRas G12D mutant + SOS: % inh.: with SOS; for KRas G12D mutant: % inh.: without SOS
Procedure, shortened: (§1)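 His-tagged GTPases immobilised on nickel-coated plates, pre-incubated with compound (20 μM single point, or serial dilution for IC50) 3 h at room temperature, with or without 10-30 μg/mL Sos (residues 556-1049) in the final hour. Bound Cy3- or Cy5-GTP (100 nM, 45 min) measured by fluorescence after washing.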

[3] = system: KRas Q61H mutant; assay: as above; details: 20 μM compound; for KRas Q61H mutant + SOS: % inh.: with SOS; for KRas Q61H mutant: % inh.: without SOS
Procedure, shortened: as §1

[4] = target: T1, Rac-1 (Homo sapiens, UniProt P63000); assay: as above; details: read-out: Rac-1: % inh.
T1 construct: made in house
Procedure, shortened: as §1

[5] = system: KRas wild type; assay: as above; details: 20 μM compound; for KRas wild type + SOS: % inh.: with SOS; for KRas wild type: % inh.: without SOS
Procedure, shortened: as §1

[6] = system: KRas G12C mutant; assay: as above; details: 20 μM compound; for KRas G12C mutant + SOS: % inh.: with SOS; for KRas G12C mutant: % inh.: without SOS
Procedure, shortened: as §1

[7] = target: T2, Rho-A (Homo sapiens, UniProt P61586); assay: as above; details: read-out: Rho-A: % inh..
T2 construct: made in house
Procedure, shortened: as §1

T2 sequence (P61586 whole entry): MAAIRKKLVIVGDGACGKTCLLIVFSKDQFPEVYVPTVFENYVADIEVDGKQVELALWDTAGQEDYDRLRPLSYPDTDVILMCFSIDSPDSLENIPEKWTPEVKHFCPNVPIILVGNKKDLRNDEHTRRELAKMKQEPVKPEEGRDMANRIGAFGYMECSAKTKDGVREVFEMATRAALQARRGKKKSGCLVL

| Compound | % inh of Erk1/2 phosphorylation in Panc-1 [1] | KRas G12D mutant + SOS: % inh. [2] | KRas G12D mutant: % inh. [2] | KRas Q61H mutant + SOS: % inh. [3] | KRas Q61H mutant: % inh. [3] | inhibition at 20 µM [4] [%] | KRas wild type + SOS: % inh. [5] | KRas wild type: % inh. [5] | KRas G12C mutant + SOS: % inh. [6] | KRas G12C mutant: % inh. [6] | inhibition at 20 µM [7] [%] |
| --- | --- | --- | --- | --- | --- | --- | --- | --- | --- | --- | --- |
| COc1cc(Nc2nc(-c3nccn3C)nn3cc(-c4cccc(OC)n4)c(C)c23)ncn1 [Compound 65, 6-(6-Methoxypyridin-2-yl)-N-(6-methoxypyrimidin-4-yl)-5-methyl-2-(1-methyl-1H-imidazol-2-yl)pyrrolo[2,1-f][1,2,4]triazin-4-amine] | A (1-25% inhibition) | C (C = 50-75% inhibition) | C (C = 50-75% inhibition) | C (C = 50-75% inhibition) | C (C = 50-75% inhibition) | 76 to 100 | B (B = 26-49% inhibition) | C (C = 50-75% inhibition) | A (A = 1-25% inhibition) | C (C = 50-75% inhibition) | 76 to 100 |
| COc1cc(Nc2nc(-c3nccn3C)nn3cc(-c4ccncc4)c(C)c23)ncn1 [Compound 49, N-(6-Methoxypyrimidin-4-yl)-5-methyl-2-(1-methyl-1H-imidazol-2-yl)-6-(pyridin-4-yl)pyrrolo[2,1-f][1,2,4]triazin-4-amine] | B* (26-49% activation) | B (B = 26-49% inhibition) | C (C = 50-75% inhibition) | D (D = 76-100% inhibition) | D (D = 76-100% inhibition) | 26 to 49 | 0 (0 = 0% inhibition) | B (B = 26-49% inhibition) | 0 (0 = 0% inhibition) | A (A = 1-25% inhibition) | 26 to 49 |
| COc1cccc(Nc2nc(-c3nccn3C)nn3ccc(C)c23)n1 [Compound 38, N-(6-Methoxypyridin-2-yl)-5-methyl-2-(1-methyl-1H-imidazol-2-yl)pyrrolo[2,1-f][1,2,4]triazin-4-amine] | 0 (0% inhibition) | 0 (0 = 0% inhibition) | 0 (0 = 0% inhibition) | 0 (0 = 0% inhibition) | 0 (0 = 0% inhibition) | 0 | 0 (0 = 0% inhibition) | 0 (0 = 0% inhibition) | 0 (0 = 0% inhibition) | 0 (0 = 0% inhibition) | 1 to 25 |
| COc1cccc(-c2cn3nc(-c4nccn4C)nc(N[C@H]4C[C@H](OC)C4)c3c2-c2ccccc2)c1Cl [Compound 32, 6-(2-Chloro-3-methoxyphenyl)-N-((1r,3r)-3-methoxycyclobutyl)-2-(1-methyl-1H-imidazol-2-yl)-5-phenylpyrrolo[2,1-f][1,2,4]triazin-4-amine] | D (85-100% inhibition) | 0 (0 = 0% inhibition) | 0 (0 = 0% inhibition) | A (A = 1-25% inhibition) | A (A = 1-25% inhibition) | 0 | 0 (0 = 0% inhibition) | A (A = 1-25% inhibition) | 0 (0 = 0% inhibition) | 0 (0 = 0% inhibition) | 1 to 25 |
| COc1ccnc(Nc2nc(-c3nccn3C)nn3cc(-c4ccn(C(C)C)n4)c(C)c23)c1 [Compound 58, 6-(1-Isopropyl-1H-pyrazol-3-yl)-N-(4-methoxypyridin-2-yl)-5-methyl-2-(1-methyl-1H-imidazol-2-yl)pyrrolo[2,1-f][1,2,4]triazin-4-amine] | D (85-100% inhibition) | D (D = 76-100% inhibition) | D (D = 76-100% inhibition) | D (D = 76-100% inhibition) | C (C = 50-75% inhibition) | 76 to 100 | D (D = 76-100% inhibition) | D (D = 76-100% inhibition) | C (C = 50-75% inhibition) | D (D = 76-100% inhibition) | 76 to 100 |
| COc1ccc(Nc2nc(-c3nccn3C)nn3cc(-c4ccn(C(C)C)n4)c(C)c23)cn1 [Compound 71, 6-(1-Isopropyl-1H-pyrazol-3-yl)-N-(6-methoxypyridin-3-yl)-5-methyl-2-(1-methyl-1H-imidazol-2-yl)pyrrolo[2,1-f][1,2,4]triazin-4-amine] | D* (85-100% activation) | A (A = 1-25% inhibition) | A (A = 1-25% inhibition) | 0 (0 = 0% inhibition) | 0 (0 = 0% inhibition) | 1 to 25 | A (A = 1-25% inhibition) | 0 (0 = 0% inhibition) | A (A = 1-25% inhibition) | 0 (0 = 0% inhibition) | 1 to 25 |
| Cc1c(-c2ccn(C(C)C)n2)cn2nc(-c3nccn3C)nc(Nc3cnccn3)c12 [Compound 62, 6-(1-Isopropyl-1H-pyrazol-3-yl)-5-methyl-2-(1-methyl-1H-imidazol-2-yl)-N-(pyrazin-2-yl)pyrrolo[2,1-f][1,2,4]triazin-4-amine] | A (1-25% inhibition) | A (A = 1-25% inhibition) | B (B = 26-49% inhibition) | A (A = 1-25% inhibition) | A (A = 1-25% inhibition) | 50 to 75 | 0 (0 = 0% inhibition) | A (A = 1-25% inhibition) | 0 (0 = 0% inhibition) | A (A = 1-25% inhibition) | 26 to 49 |
| Cc1c(-c2ccn(C(C)C)n2)cn2nc(-c3nccn3C)nc(Nc3ccn(C)n3)c12 [Compound 61, 6-(1-Isopropyl-1H-pyrazol-3-yl)-5-methyl-2-(1-methyl-1H-imidazol-2-yl)-N-(1-methyl-1H-pyrazol-3-yl)pyrrolo[2,1-f][1,2,4]triazin-4-amine] | A* (1-25% activation) | D (D = 76-100% inhibition) | D (D = 76-100% inhibition) | D (D = 76-100% inhibition) | D (D = 76-100% inhibition) | 76 to 100 | D (D = 76-100% inhibition) | D (D = 76-100% inhibition) | D (D = 76-100% inhibition) | D (D = 76-100% inhibition) | 76 to 100 |
| COCCNc1nc(-c2nccn2C)nn2cc(-c3ccn(C(C)C)n3)c(C(C)C)c12 [Compound 35, 5-Isopropyl-6-(1-isopropyl-1H-pyrazol-3-yl)-N-(2-methoxyethyl)-2-(1-methyl-1H-imidazol-2-yl)pyrrolo[2,1-f][1,2,4]triazin-4-amine] | 0 (0% inhibition) | 0 (0 = 0% inhibition) | 0 (0 = 0% inhibition) | A (A = 1-25% inhibition) | A (A = 1-25% inhibition) | 0 | A (A = 1-25% inhibition) | A (A = 1-25% inhibition) | 0 (0 = 0% inhibition) | A (A = 1-25% inhibition) | 1 to 25 |
